Data published in ChEMBL document CHEMBL1201862, “PubChem BioAssay data set” (2004).
Activity calls are given as the source filed them.

Legend:
[1] = target: Mitogen-activated protein kinase 10 (Homo sapiens, UniProt P53779); experiment: Dose response biochemical screening assay for inhibitors of c-Jun N-Terminal Kinase 3 (JNK3). [Related pubchem assays: 746 ]
[2] = target: Peroxisome proliferator-activated receptor gamma/Nuclear receptor coactivator 1 (Homo sapiens, UniProt P37231); experiment: TR-FRET dose response biochemical High Throughput Screening assay for agonists of the steroid receptor coactivator 1 (SRC-1) recruitment by the peroxisome proliferator-activated receptor gamma (PPAR gamma): non-selective agonists. [Related pubchem assays (depositor defined):AID1300, AID1808, AID504735, AID631]; format: protein assay
[3] = target: Peroxisome proliferator-activated receptor gamma/Nuclear receptor coactivator 2 (Homo sapiens, UniProt P37231); experiment: (§1) TR-FRET dose response biochemical High Throughput Screening assay for agonists of the steroid receptor coactivator 2 (SRC-2) recruitment by the peroxisome proliferator-activated receptor gamma (PPAR gamma): non-selective agonists. [Related pubchem assays: 1297, 1032 ]; format: functional
[4] = target: Peroxisome proliferator-activated receptor gamma/Nuclear receptor coactivator 3 (Homo sapiens, UniProt P37231); experiment: as §1, with “3 (SRC-3)” for “2 (SRC-2)”, “1301 (Confirmation screen.), 1048 (Primary screen.)]” for “1297, 1032 ]”; format: functional
[5] = target: T1, Alkaline phosphatase, tissue-nonspecific isozyme (Homo sapiens, UniProt P05186); experiment: TNAP enzyme inhibition by screening hits, dose response, selectivity assay for mouse IAP inhibitor project, biochemical, human TNAP, uHTS hits (AID 488906); format: functional
T1 sequence (P05186 whole entry): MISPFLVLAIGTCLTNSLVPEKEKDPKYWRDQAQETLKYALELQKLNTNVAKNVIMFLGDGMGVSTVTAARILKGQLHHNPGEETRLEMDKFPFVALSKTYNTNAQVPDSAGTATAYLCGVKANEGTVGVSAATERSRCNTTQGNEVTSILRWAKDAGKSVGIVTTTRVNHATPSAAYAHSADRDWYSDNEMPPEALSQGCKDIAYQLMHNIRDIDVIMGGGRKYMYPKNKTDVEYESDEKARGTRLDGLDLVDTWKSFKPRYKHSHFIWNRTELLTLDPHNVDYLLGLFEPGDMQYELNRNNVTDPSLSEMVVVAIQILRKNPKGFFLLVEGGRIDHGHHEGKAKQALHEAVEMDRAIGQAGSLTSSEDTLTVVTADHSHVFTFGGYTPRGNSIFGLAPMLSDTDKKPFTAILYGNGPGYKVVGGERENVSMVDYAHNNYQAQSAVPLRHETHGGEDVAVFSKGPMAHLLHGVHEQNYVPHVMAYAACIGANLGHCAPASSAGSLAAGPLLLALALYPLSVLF

Streptokinase A = target: T2, Streptokinase A (Streptococcus pyogenes serotype M1, UniProt P10520); experiment: viability-normalized secreted streptokinase activity reduction – plasminogen activation absorbance, OD405, dose response (AID 1914); format: functional, Streptococcus pyogenes M1 GAS;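 also: secreted streptokinase activity via plasminogen activation per viability signal from cell pellet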
T2 sequence (P10520 whole entry): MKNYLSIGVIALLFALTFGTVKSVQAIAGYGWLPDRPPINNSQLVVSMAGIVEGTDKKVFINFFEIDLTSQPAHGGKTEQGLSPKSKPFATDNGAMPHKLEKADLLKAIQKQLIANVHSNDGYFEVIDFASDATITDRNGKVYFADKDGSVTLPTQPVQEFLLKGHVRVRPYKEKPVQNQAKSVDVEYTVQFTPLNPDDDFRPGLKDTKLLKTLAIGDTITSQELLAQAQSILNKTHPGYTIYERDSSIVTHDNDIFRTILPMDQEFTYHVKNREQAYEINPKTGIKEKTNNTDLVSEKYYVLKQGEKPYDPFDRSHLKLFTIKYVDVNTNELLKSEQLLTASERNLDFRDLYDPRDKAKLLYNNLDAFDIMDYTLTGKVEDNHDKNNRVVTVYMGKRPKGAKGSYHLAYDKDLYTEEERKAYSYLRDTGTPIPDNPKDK

[6] = target: Intestinal-type alkaline phosphatase (Homo sapiens, UniProt P09923); experiment: inhibition of human intestinal alkaline phosphatase – biochemical, dose response (AID 488876); format: functional
[7] = target: Intestinal-type alkaline phosphatase (Mus musculus, UniProt P24822); experiment: PubChem AID 488785; format: functional
Phosphomannomutase 2 = Phosphomannomutase 2 (Homo sapiens, UniProt O15305); experiment: Counter screen SAR assay for PMM2 inhibitors via a fluorescence intensity assay. [Related pubchem assays (depositor defined):AID1545, AID1574]
[8] = target: T3, Mannose-6-phosphate isomerase (Homo sapiens, UniProt P34949); experiment: phosphomannose isomerase inhibition – biochemical, fluorescence intensity, confirmation (AID 1535)
T3 sequence (P34949 whole entry): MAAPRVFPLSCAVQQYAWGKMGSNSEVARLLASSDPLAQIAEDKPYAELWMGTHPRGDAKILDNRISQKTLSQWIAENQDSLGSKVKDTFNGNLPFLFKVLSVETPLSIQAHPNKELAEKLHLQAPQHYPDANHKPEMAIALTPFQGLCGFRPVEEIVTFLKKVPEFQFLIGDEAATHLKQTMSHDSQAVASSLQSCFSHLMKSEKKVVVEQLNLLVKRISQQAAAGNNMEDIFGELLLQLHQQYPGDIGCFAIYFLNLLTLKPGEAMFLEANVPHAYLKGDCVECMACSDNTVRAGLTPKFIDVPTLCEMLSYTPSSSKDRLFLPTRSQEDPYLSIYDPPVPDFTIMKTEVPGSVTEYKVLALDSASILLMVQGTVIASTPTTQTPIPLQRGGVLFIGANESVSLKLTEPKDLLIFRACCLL

[9] = target: T4, Tyrosine-protein phosphatase non-receptor type 7 (Homo sapiens, UniProt P35236); format: functional
T4 sequence (P35236 whole entry): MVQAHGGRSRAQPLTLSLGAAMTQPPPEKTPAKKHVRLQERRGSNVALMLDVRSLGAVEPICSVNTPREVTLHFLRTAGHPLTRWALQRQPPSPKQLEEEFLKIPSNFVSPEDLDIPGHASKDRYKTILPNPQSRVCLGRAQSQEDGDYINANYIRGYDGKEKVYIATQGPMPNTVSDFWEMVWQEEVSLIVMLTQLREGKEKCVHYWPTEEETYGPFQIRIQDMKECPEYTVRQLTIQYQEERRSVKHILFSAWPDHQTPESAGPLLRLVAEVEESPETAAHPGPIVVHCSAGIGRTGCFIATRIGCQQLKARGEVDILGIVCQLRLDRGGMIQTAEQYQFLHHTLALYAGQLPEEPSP

[10] = target: T5, Tyrosine-protein phosphatase non-receptor type 22 (Homo sapiens, UniProt Q9Y2R2); format: functional
T5 sequence (Q9Y2R2 whole entry): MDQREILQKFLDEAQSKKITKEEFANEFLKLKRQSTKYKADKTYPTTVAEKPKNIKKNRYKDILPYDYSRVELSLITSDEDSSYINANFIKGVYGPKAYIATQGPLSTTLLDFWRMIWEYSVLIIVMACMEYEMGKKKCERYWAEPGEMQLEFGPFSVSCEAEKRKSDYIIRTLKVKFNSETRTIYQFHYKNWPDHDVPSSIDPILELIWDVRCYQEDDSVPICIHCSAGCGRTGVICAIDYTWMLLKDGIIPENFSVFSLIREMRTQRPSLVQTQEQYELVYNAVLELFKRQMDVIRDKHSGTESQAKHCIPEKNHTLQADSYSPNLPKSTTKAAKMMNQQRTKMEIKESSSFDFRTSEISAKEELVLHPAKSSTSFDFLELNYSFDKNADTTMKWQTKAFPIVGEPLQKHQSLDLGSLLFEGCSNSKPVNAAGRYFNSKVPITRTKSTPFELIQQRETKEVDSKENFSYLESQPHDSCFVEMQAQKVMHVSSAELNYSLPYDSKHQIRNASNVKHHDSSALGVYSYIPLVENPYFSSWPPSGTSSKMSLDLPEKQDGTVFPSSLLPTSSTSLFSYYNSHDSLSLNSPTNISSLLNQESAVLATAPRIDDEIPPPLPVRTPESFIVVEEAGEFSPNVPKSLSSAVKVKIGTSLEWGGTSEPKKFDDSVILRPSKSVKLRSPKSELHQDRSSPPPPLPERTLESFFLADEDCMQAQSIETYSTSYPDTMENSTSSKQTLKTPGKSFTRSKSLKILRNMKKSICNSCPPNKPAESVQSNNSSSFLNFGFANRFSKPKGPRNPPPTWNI

[11] = target: T1, Alkaline phosphatase, tissue-nonspecific isozyme
[12] = target: T5, Tyrosine-protein phosphatase non-receptor type 22; format: functional; remark: listed apart in the source
[13] = target: T6, Oxysterols receptor LXR-beta (Homo sapiens, UniProt P55055); format: functional, cell-based;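 also: agonist activity at LXR measured by a cell-based luminescence readout across a dose range, run as a counterscreen for daf-12 agonists; HEK293 cells with Gal4-LXR fusion and GAL4-driven luciferase reporter; potency for activation of Gal4-LXR reporter so compounds are agonists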
T6 sequence (P55055 whole entry): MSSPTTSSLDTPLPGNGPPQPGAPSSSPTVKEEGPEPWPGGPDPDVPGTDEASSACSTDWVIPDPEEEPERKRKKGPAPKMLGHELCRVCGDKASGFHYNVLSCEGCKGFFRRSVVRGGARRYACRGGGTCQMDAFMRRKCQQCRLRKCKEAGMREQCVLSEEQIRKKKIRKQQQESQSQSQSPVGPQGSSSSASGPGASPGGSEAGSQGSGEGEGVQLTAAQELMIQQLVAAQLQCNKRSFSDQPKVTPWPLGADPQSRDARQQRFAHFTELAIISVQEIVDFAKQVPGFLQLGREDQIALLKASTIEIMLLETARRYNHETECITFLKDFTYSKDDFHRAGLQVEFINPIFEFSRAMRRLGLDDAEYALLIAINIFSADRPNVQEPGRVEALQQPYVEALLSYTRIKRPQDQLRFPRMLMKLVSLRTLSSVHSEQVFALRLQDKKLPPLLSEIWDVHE

[14] = Luminescence Cell-Based Dose Response HTS to Identify Activators of Luciferase Translation or Activity in H4 […] Cells. [Related pubchem assays: 1829 (Project Summary), 1814 (Primary HTS)]; format: functional
Escherichia coli [15] = experiment: microbe, parasite or virus in culture
Escherichia coli [16] = experiment: microbe, parasite or virus in culture; remark: listed apart in the source
SUMO-activating enzyme = SUMO-activating enzyme (Homo sapiens, UniProt Q9UBT2); experiment: blockers of UBC9-mediated SUMO conjugation – biochemical, AlphaScreen, SUMOylation inhibitor project, confirmation (AID 2018); format: functional
[17] = microbe, parasite or virus in culture; format: functional; details: Mycobacterium tuberculosis
Cytochrome P450 2D6 = Cytochrome P450 2D6 (Homo sapiens, UniProt P10635);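 also: CYP2D6 member of a cytochrome P450 panel assay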
Cytochrome P450 1A2 = target: T7, Cytochrome P450 1A2 (Homo sapiens, UniProt P05177);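 also: PubChem cytochrome P450 panel assay, CYP1A2 panel member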
T7 sequence (P05177 whole entry): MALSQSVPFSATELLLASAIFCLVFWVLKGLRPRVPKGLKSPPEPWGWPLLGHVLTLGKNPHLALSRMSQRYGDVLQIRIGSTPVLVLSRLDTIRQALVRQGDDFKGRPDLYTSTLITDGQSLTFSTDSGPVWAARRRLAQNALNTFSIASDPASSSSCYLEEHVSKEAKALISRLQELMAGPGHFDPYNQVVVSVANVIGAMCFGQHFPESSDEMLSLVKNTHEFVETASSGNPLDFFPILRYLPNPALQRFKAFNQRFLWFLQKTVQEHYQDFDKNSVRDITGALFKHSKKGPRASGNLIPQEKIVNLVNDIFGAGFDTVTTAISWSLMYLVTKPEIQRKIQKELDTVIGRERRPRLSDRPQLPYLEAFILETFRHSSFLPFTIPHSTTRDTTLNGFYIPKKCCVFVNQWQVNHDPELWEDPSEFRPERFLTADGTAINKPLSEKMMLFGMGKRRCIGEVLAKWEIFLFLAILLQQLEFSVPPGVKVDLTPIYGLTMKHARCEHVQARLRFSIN

HeLa = experiment: ATP-based viability loss in HeLa cells – cell-based, CellTiter-Glo luminescence, cherry-pick samples, cytotoxicity control for MITF activator project, dose response (AID 540259); format: functional; details: Homo sapiens
[18] = target: Photoreceptor-specific nuclear receptor (Homo sapiens, UniProt Q9Y5X4); format: functional;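 also: potency for compounds that break the NR2E3 corepressor complex and count as activators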
[19] = target: Peroxisome proliferator-activated receptor gamma/Nuclear receptor corepressor 2 (Homo sapiens, UniProt P37231+Q9Y618); format: functional

Intestinal-type alkaline phosphatase (Homo sapiens, UniProt P09923), sequence (P09923 whole entry): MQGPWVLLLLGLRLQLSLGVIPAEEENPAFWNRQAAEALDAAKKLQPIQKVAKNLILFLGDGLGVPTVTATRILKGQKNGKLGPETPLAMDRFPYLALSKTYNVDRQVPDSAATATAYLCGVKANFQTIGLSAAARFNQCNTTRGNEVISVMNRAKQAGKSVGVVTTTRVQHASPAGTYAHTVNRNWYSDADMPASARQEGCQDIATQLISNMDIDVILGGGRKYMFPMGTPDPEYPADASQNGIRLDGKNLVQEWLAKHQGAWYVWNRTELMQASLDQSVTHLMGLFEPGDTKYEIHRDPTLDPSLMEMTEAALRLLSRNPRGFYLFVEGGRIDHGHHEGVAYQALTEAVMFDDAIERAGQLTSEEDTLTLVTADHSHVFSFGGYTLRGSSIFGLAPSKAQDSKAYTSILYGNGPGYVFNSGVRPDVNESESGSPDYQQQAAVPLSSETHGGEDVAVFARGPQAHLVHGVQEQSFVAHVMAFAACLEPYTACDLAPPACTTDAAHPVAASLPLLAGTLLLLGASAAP
Peroxisome proliferator-activated receptor gamma/Nuclear receptor coactivator 2, sequence (P37231 whole entry): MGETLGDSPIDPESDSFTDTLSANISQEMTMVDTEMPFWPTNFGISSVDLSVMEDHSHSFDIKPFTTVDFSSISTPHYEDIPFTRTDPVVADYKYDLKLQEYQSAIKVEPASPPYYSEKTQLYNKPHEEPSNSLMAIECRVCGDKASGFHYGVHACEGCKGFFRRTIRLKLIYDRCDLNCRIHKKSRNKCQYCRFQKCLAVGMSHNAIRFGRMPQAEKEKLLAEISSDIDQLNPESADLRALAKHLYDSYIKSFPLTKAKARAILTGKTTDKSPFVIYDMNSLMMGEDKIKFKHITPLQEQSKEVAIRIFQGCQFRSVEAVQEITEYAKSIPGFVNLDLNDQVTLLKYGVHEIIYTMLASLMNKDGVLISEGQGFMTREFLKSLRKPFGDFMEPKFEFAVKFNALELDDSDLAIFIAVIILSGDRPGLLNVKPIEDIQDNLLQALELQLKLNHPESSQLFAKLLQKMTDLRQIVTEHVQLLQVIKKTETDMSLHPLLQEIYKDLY
Peroxisome proliferator-activated receptor gamma/Nuclear receptor coactivator 2, sequence (Q15596 whole entry, further chain): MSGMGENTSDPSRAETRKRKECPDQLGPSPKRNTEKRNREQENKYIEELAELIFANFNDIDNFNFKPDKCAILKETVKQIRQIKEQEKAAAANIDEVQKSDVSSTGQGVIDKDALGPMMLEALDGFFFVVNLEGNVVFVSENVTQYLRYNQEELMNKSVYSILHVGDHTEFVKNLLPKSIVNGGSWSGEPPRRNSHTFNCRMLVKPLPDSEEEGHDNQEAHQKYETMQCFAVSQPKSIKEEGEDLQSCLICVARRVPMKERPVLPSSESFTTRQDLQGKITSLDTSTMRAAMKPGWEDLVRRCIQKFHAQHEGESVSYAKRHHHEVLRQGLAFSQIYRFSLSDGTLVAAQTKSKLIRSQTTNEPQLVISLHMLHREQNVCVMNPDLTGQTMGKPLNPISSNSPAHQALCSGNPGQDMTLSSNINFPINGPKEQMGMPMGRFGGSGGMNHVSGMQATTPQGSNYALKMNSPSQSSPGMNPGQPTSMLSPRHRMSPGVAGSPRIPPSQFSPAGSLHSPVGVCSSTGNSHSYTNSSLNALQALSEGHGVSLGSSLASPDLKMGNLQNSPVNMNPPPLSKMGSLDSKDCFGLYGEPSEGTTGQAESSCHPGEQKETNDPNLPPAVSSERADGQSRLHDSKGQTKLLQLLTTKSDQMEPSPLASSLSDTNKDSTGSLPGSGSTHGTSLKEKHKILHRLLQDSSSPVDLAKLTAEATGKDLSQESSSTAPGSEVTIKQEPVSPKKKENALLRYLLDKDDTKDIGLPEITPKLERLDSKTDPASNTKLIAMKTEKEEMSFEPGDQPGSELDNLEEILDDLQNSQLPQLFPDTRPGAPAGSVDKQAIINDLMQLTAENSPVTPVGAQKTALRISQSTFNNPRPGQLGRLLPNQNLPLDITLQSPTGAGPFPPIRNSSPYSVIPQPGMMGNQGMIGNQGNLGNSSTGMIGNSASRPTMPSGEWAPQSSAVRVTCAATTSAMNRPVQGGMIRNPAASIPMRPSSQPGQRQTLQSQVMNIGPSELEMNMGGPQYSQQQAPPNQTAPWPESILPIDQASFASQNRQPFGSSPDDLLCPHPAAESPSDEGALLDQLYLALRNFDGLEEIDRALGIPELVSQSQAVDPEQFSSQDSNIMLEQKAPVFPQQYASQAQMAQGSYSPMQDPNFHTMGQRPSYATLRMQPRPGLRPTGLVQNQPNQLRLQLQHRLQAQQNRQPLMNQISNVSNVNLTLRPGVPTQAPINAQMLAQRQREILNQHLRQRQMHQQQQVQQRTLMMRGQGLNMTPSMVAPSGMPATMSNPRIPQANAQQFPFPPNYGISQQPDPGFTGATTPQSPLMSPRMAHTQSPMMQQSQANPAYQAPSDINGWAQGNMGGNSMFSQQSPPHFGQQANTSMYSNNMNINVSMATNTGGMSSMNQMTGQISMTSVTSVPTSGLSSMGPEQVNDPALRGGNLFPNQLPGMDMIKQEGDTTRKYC
Peroxisome proliferator-activated receptor gamma/Nuclear receptor coactivator 3, sequence (P37231 whole entry): as the sequence (P37231 whole entry) above
Peroxisome proliferator-activated receptor gamma/Nuclear receptor coactivator 3, sequence (Q9Y6Q9 whole entry, further chain): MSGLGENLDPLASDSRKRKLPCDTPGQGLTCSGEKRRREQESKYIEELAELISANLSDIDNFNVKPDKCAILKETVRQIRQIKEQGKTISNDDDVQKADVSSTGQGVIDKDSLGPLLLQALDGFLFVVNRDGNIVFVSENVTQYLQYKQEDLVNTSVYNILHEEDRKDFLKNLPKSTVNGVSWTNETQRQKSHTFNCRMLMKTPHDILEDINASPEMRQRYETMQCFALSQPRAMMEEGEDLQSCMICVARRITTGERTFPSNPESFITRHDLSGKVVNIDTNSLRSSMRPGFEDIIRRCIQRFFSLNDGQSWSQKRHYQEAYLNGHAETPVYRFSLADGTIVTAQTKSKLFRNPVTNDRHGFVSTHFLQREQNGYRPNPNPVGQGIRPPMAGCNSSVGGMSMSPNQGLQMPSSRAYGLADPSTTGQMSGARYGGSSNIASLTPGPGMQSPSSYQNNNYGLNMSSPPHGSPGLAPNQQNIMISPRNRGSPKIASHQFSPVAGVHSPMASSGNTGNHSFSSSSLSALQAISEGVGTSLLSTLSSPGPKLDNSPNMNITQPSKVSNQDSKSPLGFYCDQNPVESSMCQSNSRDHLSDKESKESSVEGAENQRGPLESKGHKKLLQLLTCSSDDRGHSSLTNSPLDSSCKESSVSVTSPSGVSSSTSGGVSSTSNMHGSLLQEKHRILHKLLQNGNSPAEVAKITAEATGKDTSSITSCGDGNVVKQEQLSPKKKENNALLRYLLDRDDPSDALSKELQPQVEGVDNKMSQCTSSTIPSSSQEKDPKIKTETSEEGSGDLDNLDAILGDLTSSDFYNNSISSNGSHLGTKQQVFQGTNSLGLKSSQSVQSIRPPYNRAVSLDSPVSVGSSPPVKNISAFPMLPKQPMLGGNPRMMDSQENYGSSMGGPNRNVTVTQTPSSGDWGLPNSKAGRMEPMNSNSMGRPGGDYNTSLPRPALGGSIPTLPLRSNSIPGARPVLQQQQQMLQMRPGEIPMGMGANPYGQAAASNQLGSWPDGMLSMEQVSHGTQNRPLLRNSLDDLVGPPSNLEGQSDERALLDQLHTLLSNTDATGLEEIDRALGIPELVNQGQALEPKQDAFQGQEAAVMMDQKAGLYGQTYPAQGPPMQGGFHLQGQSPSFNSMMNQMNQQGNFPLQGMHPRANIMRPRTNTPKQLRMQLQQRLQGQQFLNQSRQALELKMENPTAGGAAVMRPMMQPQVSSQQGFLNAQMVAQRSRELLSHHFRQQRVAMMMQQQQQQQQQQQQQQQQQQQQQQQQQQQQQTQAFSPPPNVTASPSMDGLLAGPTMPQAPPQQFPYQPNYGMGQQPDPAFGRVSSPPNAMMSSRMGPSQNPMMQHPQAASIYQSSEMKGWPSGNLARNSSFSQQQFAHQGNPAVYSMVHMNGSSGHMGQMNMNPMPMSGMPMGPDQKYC
Intestinal-type alkaline phosphatase (Mus musculus, UniProt P24822), sequence (P24822 whole entry): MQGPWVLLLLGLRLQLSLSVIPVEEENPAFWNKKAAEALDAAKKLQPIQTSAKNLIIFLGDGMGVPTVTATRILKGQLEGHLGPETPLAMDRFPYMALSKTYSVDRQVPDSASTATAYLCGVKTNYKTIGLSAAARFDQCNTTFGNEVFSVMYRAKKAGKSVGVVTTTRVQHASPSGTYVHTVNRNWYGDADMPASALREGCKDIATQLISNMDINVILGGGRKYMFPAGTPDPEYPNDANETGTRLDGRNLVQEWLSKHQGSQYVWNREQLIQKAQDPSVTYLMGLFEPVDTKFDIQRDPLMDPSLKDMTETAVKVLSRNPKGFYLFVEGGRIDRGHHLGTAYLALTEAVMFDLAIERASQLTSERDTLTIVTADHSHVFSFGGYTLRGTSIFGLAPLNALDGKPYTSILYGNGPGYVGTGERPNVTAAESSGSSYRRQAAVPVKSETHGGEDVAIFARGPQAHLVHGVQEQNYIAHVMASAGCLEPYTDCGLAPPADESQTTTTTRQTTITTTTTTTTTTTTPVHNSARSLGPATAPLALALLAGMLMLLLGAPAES

CCOc1ccc(C(=O)C2=C(O)C(=O)N(c3cc(C)on3)C2c2ccccc2OC)cc1 (configuration not stated)
IC50 [1]: > 93.1 µM (not active) | EC50 [2]: > 79.4 µM (inactive) | EC50 [3]: > 26.5 µM (not active) | EC50 [4]: > 79.4 µM (not active)

FC(F)Sc1ccc(NC(=S)NC(c2ccccc2)c2ccccc2)cc1
IC50 [5]: 41.1 µM (active) | EC50 (Streptokinase A): > 150 µM (not active) | IC50 [6]: > 100 µM (inactive) | IC50 [7]: 0.998 µM (active)

CCc1nnc(/N=c2\ssnc2Cl)s1
IC50 (Phosphomannomutase 2): > 100 µM (inactive) | IC50 [8]: 13.1 µM (active)

COc1cccc(CNC(=O)CCNS(=O)(=O)c2ccc3[nH]c(=O)oc3c2)c1
IC50 [5]: 63.2 µM (active) | IC50 [6]: > 100 µM (inactive) | IC50 [7]: 13.9 µM (active)

COc1ccc(CNC(=O)c2cc(-c3ccccc3O)[nH]n2)cc1
IC50 [9]: > 79.4 µM (inactive) | IC50 [10]: > 79.4 µM (inactive) | EC50 [11]: > 100 µM (not active) | IC50 [12]: > 79.4 µM (inactive)

COc1ccc(/C=C2\SC(=O)N(CCNC(=O)C3CC4C=CC3C4)C2=O)cc1 (configuration not stated)
EC50 [13]: > 67.5 µM (inactive) | EC50 [14]: 0.164 µM (active) | AC50 (Escherichia coli [15]): > 380 µM (inactive) | AC50 (Escherichia coli [16]): 23.7 µM (active)

O=C(Nc1cccc2nsnc12)c1ccc(-c2ccc(Br)cc2)o1
IC50 (SUMO-activating enzyme): 9.92 µM (active)

CCCc1ccc2oc(C(=O)N(C)Cc3nccs3)c(C)c2c1
CC50 [17]: 21.8 µM (active) | AC50 (Escherichia coli [15]): > 380 µM (inactive) | AC50 (Escherichia coli [16]): 31.7 µM (active)

CC(=O)NS(=O)(=O)c1ccc(NC(=O)C2C3C=CC(C3)C2C(=O)O)cc1 (configuration not stated)
IC50 [9]: > 79.4 µM (inactive) | IC50 [10]: > 79.4 µM (inactive) | IC50 [12]: > 79.4 µM (inactive)

Cc1ccc(N2C(=O)c3[nH]nc(C)c3C2c2ccccn2)cc1 (configuration not stated)
AC50 (Cytochrome P450 2D6): inconclusive

O=C(O)[C@@H]1[C@@H](C(=O)O)[C@]23C[C@@]2(C(=O)O)[C@]2(C(=O)O)CCC3=C3CCCC312
AC50 (Cytochrome P450 2D6): inconclusive | AC50 (Cytochrome P450 1A2): 2.51 µM (inconclusive)

c1ccc2nc(-c3nccs3)ccc2c1
AC50 (HeLa): 57.5 µM (active)

O=c1oc2cc(O)c(Cl)cc2c2ccccc12
IC50 [18]: > 39.8 µM (not active) | IC50 [19]: 1.39 µM (active) | EC50 [2]: > 79.4 µM (inactive) | EC50 [3]: 3.81 µM (active) | EC50 [4]: > 79.4 µM (not active)
